Measured values taken from US20260053171A1, “METHANOGEN INHIBITORS” (AGRIZERONZ LIMITED PARTNERSHIP, priority 2022, published 2026).

Test system: methane production in rumen fluid
Experiment: Rumen in vitro (RIV) assay, methane production from rumen fluid incubations
Type: cell-based, cattle
Details: Bos taurus, read-out: RIV % methane reduction +/− SD
Procedure, shortened: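 Rumen fluid from two fistulated cattle diluted 12 ml in 48 ml buffer with ryegrass substrate, incubated in sealed bottles at 39° C for 24-48 h in duplicate. Inhibitors added in DMF (stocks 1000-fold above highest assay level); total gas, methane and H2 measured automatically; 30 μM BES positive control, no-inhibitor negative control.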

Compound	inhibition at 10 µM	inhibition at 50 µM	inhibition at 2 µM
O=C(O)CCC(=O)N1N=C(c2ccc(OC(F)(F)F)cc2)CC1c1ccc2nccnc2c1 (stereo not shown) [Compound 8, 4-Oxo-4-(5-(quinoxalin-6-yl)-3-(4-(trifluoromethoxy)phenyl)-4,5-dihydro-1H-pyrazol-1-yl)butanoic acid]	22.6 ± 2.8%	75.2 ± 1.6%	–
O=C(O)CCCC(=O)N1N=C(c2ccc(Cl)cc2)CC1c1ccc2nccnc2c1 (stereo not shown) [Compound 50, 5-(3-(4-Chlorophenyl)-5-(quinoxalin-6-yl)-4,5-dihydro-1H-pyrazol-1-yl)-5-oxopentanoic acid]	–	66.4 ± 2.9%	–
CC(C)(C)C(=O)OCOC(=O)CCC(=O)N1N=C(c2ccc(Cl)cc2)CC1c1ccc2nccnc2c1 (stereo not shown) [Compound 54, (Pivaloyloxy)methyl 4-(3-(4-chlorophenyl)-5-(quinoxalin-6-yl)-4,5-dihydro-1H-pyrazol-1-yl)-4-oxobutanoate]	–	23.8 ± 9.4%	–
O=C(O)CCC(=O)N1N=C(c2ccc(-c3ccc4c(c3)OC(F)(F)O4)cc2)CC1c1ccc2nccnc2c1 (stereo not shown) [Compound 104, 4-(3-(4-(2,2-Difluorobenzo[d][1,3]dioxol-5-yl)phenyl)-5-(quinoxalin-6-yl)-4,5-dihydro-1H-pyrazol-1-yl)-4-oxobutanoic acid]	41.9 ± 8.9%	–	–
O=C(O)CCC(=O)N1N=C(c2ccc(-c3ccc(OC4CC4)cc3)cc2)CC1c1ccc2nccnc2c1 (stereo not shown) [Compound 84, 4-(3-(4′-Cyclopropoxy-[1,1′-biphenyl]-4-yl)-5-(quinoxalin-6-yl)-4,5-dihydro-1H-pyrazol-1-yl)-4-oxobutanoic acid]	75.1 ± 4.2%	–	9.8 ± 1%
O=C(O)CCC(=O)N1N=C(c2ccc(-c3cc(F)cc(F)c3)cc2)CC1c1ccc2nccnc2c1 (stereo not shown) [Compound 66, 4-(3-(3′,5′-Difluoro-[1,1′-biphenyl]-4-yl)-5-(quinoxalin-6-yl)-4,5-dihydro-1H-pyrazol-1-yl)-4-oxobutanoic acid]	85.4%	–	17.5%
O=C(O)CCC(=O)N1N=C(c2ccc(-c3ccc(C(F)(F)F)cc3)cc2)CC1c1ccc2nccnc2c1 (stereo not shown) [Compound 20, 4-Oxo-4-(5-(quinoxalin-6-yl)-3-(4′-(trifluoromethyl)-[1,1′-biphenyl]-4-yl)-4,5-dihydro-1H-pyrazol-1-yl)butanoic acid]	37.2 ± 5.9%	–	–
CS(=O)(=O)NC(=O)CCC(=O)N1N=C(c2ccc(OC(F)(F)F)cc2)CC1c1ccc2nccnc2c1 (stereo not shown) [Compound 56]	72.4 ± 10.6%	98.6%	< 5%
O=C(O)CCC(=O)N1N=C(c2ccc(Cl)cc2)CC1c1ccc2c(c1)OCO2 (stereo not shown) [Compound 37, 4-(5-(benzo[d][1,3]dioxol-5-yl)-3-(4-chlorophenyl)-4,5-dihydro-1H-pyrazol-1-yl)-4-oxobutanoic acid]	–	15.6 ± 2%	–
O=C(O)c1cccc(N2N=C(c3cccc(-c4ccccc4)c3)CC2c2ccc3nccnc3c2)c1 (stereo not shown) [Compound 114, 3-(3-([1,1′-Biphenyl]-3-yl)-5-(quinoxalin-6-yl)-4,5-dihydro-1H-pyrazol-1-yl)benzoic acid]	58.3 ± 16.6%	–	–
O=C(O)CCC(=O)N1N=C(c2ccc(Cl)c(Cl)c2)CC1c1ccc2nccnc2c1 (stereo not shown) [Compound 11, 4-(3-(3,4-Dichlorophenyl)-5-(quinoxalin-6-yl)-4,5-dihydro-1H-pyrazol-1-yl)-4-oxobutanoic acid]	–	62.8 ± 3.4%	–
O=C(O)CCC(=O)N1N=C(c2ccc(-c3cc(Cl)cc(Cl)c3)cc2)CC1c1ccc2nccnc2c1 (stereo not shown) [Compound 28, 4-(3-(3′,5′-Dichloro-[1,1′-biphenyl]-4-yl)-5-(quinoxalin-6-yl)-4,5-dihydro-1H-pyrazol-1-yl)-4-oxobutanoic acid]	84 ± 0.8%	96.1 ± 0.1%	8 ± 2.1%
COc1cc(C2CC(c3ccc(Cl)cc3)=NN2C(=O)CCC(=O)O)ccc1O (stereo not shown) [Compound 45, 4-(3-(4-Chlorophenyl)-5-(4-hydroxy-3-methoxyphenyl)-4,5-dihydro-1H-pyrazol-1-yl)-4-oxobutanoic acid]	9.9 ± 1.8%	73.1 ± 8.6%	–
O=C(O)CCC(=O)N1N=C(c2ccc(-c3ccccc3)cc2)CC1c1ccc2nccnc2c1 (stereo not shown) [Compound 15, 4-(3-([1,1′-Biphenyl]-4-yl)-5-(quinoxalin-6-yl)-4,5-dihydro-1H-pyrazol-1-yl)-4-oxobutanoic acid]	60.1 ± 1%	87.8 ± 1.6%	< 5%
CC(C)Sc1ccc(-c2ccc(C3=NN(C(=O)CCC(=O)O)C(c4ccc5nccnc5c4)C3)cc2)cc1 (stereo not shown) [Compound 93, 4-(3-(4′-(Isopropylthio)-[1,1′-biphenyl]-4-yl)-5-(quinoxalin-6-yl)-4,5-dihydro-1H-pyrazol-1-yl)-4-oxobutanoic acid]	49.1 ± 10.8%	–	–
O=C(O)CCC(=O)N1N=C(c2ccc(Cl)cc2)CC1c1ccc2nccnc2c1 (stereo not shown) [Compound 1, 4-(3-(4-Chlorophenyl)-5-(quinoxalin-6-yl)-4,5-dihydro-1H-pyrazol-1-yl)-4-oxobutanoic acid]	–	37.6 ± 1.3%	–
O=C(O)CCC(=O)N1N=C(c2ccc(-c3cccnc3)cc2)CC1c1ccc2nccnc2c1 (stereo not shown) [Compound 30, 4-Oxo-4-(3-(4-(pyridin-3-yl)phenyl)-5-(quinoxalin-6-yl)-4,5-dihydro-1H-pyrazol-1-yl)butanoic acid]	–	9.3 ± 2.8%	–
CN(C)S(=O)(=O)NC(=O)CCC(=O)N1N=C(c2ccc(-c3ccccc3)cc2)CC1c1ccc2nccnc2c1 (stereo not shown) [Compound 71, 4-(3-([1,1′-Biphenyl]-4-yl)-5-(quinoxalin-6-yl)-4,5-dihydro-1H-pyrazol-1-yl)-N—(N,N-dimethylsulfamoyl)-4-oxobutanamide]	70.7%	–	< 5%
O=C(O)CCC(=O)N1N=C(c2ccc3ccccc3c2)CC1c1ccc2nccnc2c1 (stereo not shown) [Compound 31, 4-(3-(Naphthalen-2-yl)-5-(quinoxalin-6-yl)-4,5-dihydro-1H-pyrazol-1-yl)-4-oxobutanoic acid]	–	56.6 ± 6.9%	–
Cc1ccccc1S(=O)(=O)NC(=O)CCC(=O)N1N=C(c2ccc(Cl)cc2)CC1c1ccc2nccnc2c1 (stereo not shown) [Compound 124, 4-(3-(4-Chlorophenyl)-5-(quinoxalin-6-yl)-4,5-dihydro-1H-pyrazol-1-yl)-4-oxo-N-(o-tolylsulfonyl) butanamide]	12.7 ± 0.8%	–	–
O=C(O)CCC(=O)N1N=C(c2ccc(-c3ccc(OC(F)(F)F)cc3)cc2)CC1c1ccc2nccnc2c1 (stereo not shown) [Compound 22, 4-Oxo-4-(5-(quinoxalin-6-yl)-3-(4′-(trifluoromethoxy)-[1,1′-biphenyl]-4-yl)-4,5-dihydro-1H-pyrazol-1-yl)butanoic acid]	85.1 ± 0.8%	94.7 ± 0.8%	23.8 ± 1.1%
O=C(O)CCC(=O)N1N=C(c2ccc(C(F)(F)F)cc2)CC1c1ccc2nccnc2c1 (stereo not shown) [Compound 5, 4-Oxo-4-(5-(quinoxalin-6-yl)-3-(4-(trifluoromethyl)phenyl)-4,5-dihydro-1H-pyrazol-1-yl)butanoic acid]	–	46.5 ± 2.7%	–
O=C(O)CCC(=O)N1N=C(c2ccc(C3CCCCC3)cc2)CC1c1ccc2nccnc2c1 (stereo not shown) [Compound 4, 4-(3-(4-Cyclohexylphenyl)-5-(quinoxalin-6-yl)-4,5-dihydro-1H-pyrazol-1-yl)-4-oxobutanoic acid]	< 5%	79.5 ± 4.4%	–
